Numbering of substitutions follows the chain as printed. Several values for one entry are separate records, joined by “and”; a condition that tells them apart may be missing. Equal entries are not always repeated. Structures can show the parent of a compound that is named as a salt. Where two headings read alike, the source gives them in different places.
Tests used:
[1] = biological target: histamine H2 receptor (Arginine 215 / Lysine 231) (Homo sapiens, UniProt P25021); experiment: R-SAT functional assay, histamine H2 receptor wild type; type: cell-based; settings: agonists and inverse agonists; for EC50: read-out: Ave −Log EC50 (converted)
[2] = biological target: serotonin 7 receptor L421P (Proline 421) (Homo sapiens, UniProt P34969, L421P); experiment: R-SAT functional assay, serotonin 7 receptor L421P; type: cell-based; settings: Table 20; for EC50: read-out: Ave −Log EC50 (converted); for FOLD: shift in functional potency, Proline 421 vs Leucine 421
[3] = biological target: serotonin 7 receptor (Leucine 421) (Homo sapiens, UniProt P34969); experiment: R-SAT functional assay, serotonin 7 receptor wild type; type: cell-based; settings: Leucine 421 (wild type), inverse agonists, Table 20; for EC50: read-out: Ave −Log EC50 (converted)
[4] = biological target: serotonin 1E receptor S262F (Phenylalanine 262) (Homo sapiens, UniProt P28566, S262F); experiment: cell-based
[5] = biological target: serotonin 1E receptor (Isoleucine 44 / Serine 262) (Homo sapiens, UniProt P28566); experiment: cell-based
[6] = biological target: serotonin 1E receptor I44T (Threonine 44) (Homo sapiens, UniProt P28566, I44T); experiment: cell-based
[7] = biological target: dopamine D2 receptor (Leucine 40 / Valine 208) (Homo sapiens, UniProt P14416); experiment: R-SAT functional assay, dopamine D2 receptor wild type; type: cell-based
[8] = biological target: T1, dopamine D2 receptor V208L (Leucine 208) (Homo sapiens, UniProt P14416, V208L); experiment: R-SAT functional assay, dopamine D2 receptor V208L; type: cell-based
T1 construct: expressed in transfected cells; host or cells: NIH-3T3

[9] = biological target: T2, dopamine D2 receptor L40R (Arginine 40) (Homo sapiens, UniProt P14416, L40R); experiment: R-SAT functional assay, dopamine D2 receptor L40R; type: cell-based
T2 construct: expressed in transfected cells; host or cells: NIH-3T3

[10] = biological target: T3, alpha 1A/C receptor (Glycine 43 / Isoleucine 200) (Homo sapiens, UniProt P35348, C347R/Q431E); experiment: R-SAT functional assay, alpha 1A/C receptor wild type; type: cell-based; settings: read-out: Ave −Log EC50 (converted)
T3 construct: expressed in transfected cells; host or cells: NIH-3T3
T3 sequence (P35348 1-464 C347R/Q431E): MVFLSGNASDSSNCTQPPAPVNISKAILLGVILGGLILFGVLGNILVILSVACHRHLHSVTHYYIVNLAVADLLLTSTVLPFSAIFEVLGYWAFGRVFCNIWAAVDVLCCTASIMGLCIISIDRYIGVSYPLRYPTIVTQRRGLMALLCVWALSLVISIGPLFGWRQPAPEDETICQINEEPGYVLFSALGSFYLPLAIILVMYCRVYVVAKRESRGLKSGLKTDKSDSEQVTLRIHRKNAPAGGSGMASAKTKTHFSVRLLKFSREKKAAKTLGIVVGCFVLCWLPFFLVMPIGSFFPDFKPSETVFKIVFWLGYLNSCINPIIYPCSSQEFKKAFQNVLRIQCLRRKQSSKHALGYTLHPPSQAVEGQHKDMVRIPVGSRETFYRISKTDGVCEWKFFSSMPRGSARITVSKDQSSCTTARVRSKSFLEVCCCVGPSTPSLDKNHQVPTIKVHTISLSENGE

[11] = biological target: T4, alpha 1A/C receptor I200S (Serine 200) (Homo sapiens, UniProt P35348, C347R/I200S/Q431E); experiment: R-SAT functional assay, alpha 1A/C receptor I200S; type: cell-based; settings: Table 2; for EC50: Serine 200 (I200S), read-out: Ave −Log EC50 (converted); for FOLD: shift in functional potency, Serine 200 vs Isoleucine 200
T4 construct: expressed in transfected cells; host or cells: NIH-3T3
T4 sequence (P35348 1-464 I200S/C347R/Q431E): T3 sequence (P35348 1-464 C347R/Q431E) with I200S

[12] = biological target: T5, alpha 1A/C receptor G43C (Cysteine 43) (Homo sapiens, UniProt P35348, C347R/G43C/Q431E); experiment: R-SAT functional assay, alpha 1A/C receptor G43C; type: cell-based; settings: Table 1
T5 construct: expressed in transfected cells; host or cells: NIH-3T3

[13] = biological target: serotonin 2B receptor (Arginine 388) (Homo sapiens, UniProt P41595); experiment: cell-based
[14] = biological target: serotonin 2B receptor R388W (Tryptophan 388) (Homo sapiens, UniProt P41595, R388W); experiment: cell-based
[15] = biological target: T6, histamine H2 receptor K231R (Arginine 231) (Homo sapiens, UniProt P25021, K231R); experiment: R-SAT functional assay, histamine H2 receptor K231R; type: cell-based
T6 construct: expressed in transfected cells; host or cells: NIH-3T3

[16] = biological target: dopamine D1 receptor (Threonine 37 / Proline 79 / Serine 199) (Homo sapiens, UniProt P21728); experiment: R-SAT functional assay, dopamine D1 receptor wild type; type: cell-based; settings: read-out: Ave −Log EC50 (converted)
[17] = biological target: T7, dopamine D1 receptor S199A (Alanine 199) (Homo sapiens, UniProt P21728, S199A); experiment: R-SAT functional assay, dopamine D1 receptor S199A; type: cell-based; settings: Table 5
T7 construct: expressed in transfected cells; host or cells: NIH-3T3

[18] = biological target: T8, dopamine D1 receptor T37P (Proline 37) (Homo sapiens, UniProt P21728, T37P); experiment: R-SAT functional assay, dopamine D1 receptor T37P; type: cell-based; settings: Table 3
T8 construct: expressed in transfected cells; host or cells: NIH-3T3

[19] = biological target: T9, dopamine D1 receptor P79S (Serine 79) (Homo sapiens, UniProt P21728, P79S); experiment: R-SAT functional assay, dopamine D1 receptor P79S; type: cell-based; settings: Table 4
T9 construct: expressed in transfected cells; host or cells: NIH-3T3

[20] = biological target: T10, cholecystokinin B receptor L224Q (Glutamine 224) (Homo sapiens, UniProt P32239, E288K/L224Q); experiment: R-SAT functional assay, cholecystokinin B receptor L224Q; type: cell-based
T10 construct: expressed in transfected cells; host or cells: NIH-3T3

[21] = biological target: Neuropeptide Y1 receptor, wild type (Histidine 298) (UniProt P25929); experiment: cell-based or functional assay
[22] = biological target: Neuropeptide Y1 receptor H298P variant (Proline 298) (UniProt P25929); experiment: cell-based or functional assay
[23] = Arginine 215 (wild type), Table 10
[24] = Lysine 231 (wild type), Table 11
[25] = Proline 421 (L421P), inverse agonists
[26] = Isoleucine 200 (wild type), Table 2

CN(C)CCCSC(=N)N
EC50 [1, 23]: 234 nM
Ave −Log EC50 [1, 24]: 6.63

OCCN1CCN([C@@H]2C[C@@H](c3ccc(F)cc3)c3ccc(C(F)(F)F)cc32)CC1 (racemic) [Tefludazine]
EC50 [2, 25]: 11.2 nM
FOLD [2]: 27.0 fold
EC50 [3]: 0.417 nM

CN1CCC(c2c[nH]c3ccc(O)cc23)CC1.O=C(O)/C=C\C(=O)O [BRL54443, 3-(1-Methylpiperidin-4-yl)-1H-indole-5-ol maleate]
EC50 [4]: 174 nM
FOLD [4]: 5.9 fold
Ave −Log EC50 [5]: 7.53
EC50 [5]: 29.5 nM
EC50 [6]: 1480 nM
FOLD [6]: 50 fold

CC(C)C[C@H]1C(=O)N2CCC[C@H]2[C@]2(O)O[C@](NC(=O)[C@@H]3C=C4c5cccc6[nH]c(Br)c(c56)C[C@H]4N(C)C3)(C(C)C)C(=O)N12 [Bromocriptine]
EC50 ([7]; Ave −Log EC50): 0.447 nM and 1.66 nM
EC50 [8]: 0.295 nM
EC50 [9]: 47.9 nM

c1ccc(C2CC2)c(OCC2=NCCN2)c1 [Cirazoline]
EC50 ([10]; Glycine 43 (wild type), Table 1): 42.7 nM
EC50 [10, 26]: 15.5 nM
EC50 [11]: 47.9 nM
FOLD [11]: 3.1 fold
EC50 ([12]; Cysteine 43 (G43C), read-out: Ave −Log EC50 (converted)): 14.5 nM
FOLD ([12]; shift in functional potency, Cysteine 43 vs Glycine 43): −3.0 fold

OCCN1CCN(CC/C=C2/c3ccccc3Sc3ccc(C(F)(F)F)cc32)CC1 [Cis-flupenthixol]
Ave −Log EC50 [2, 25]: 7.61
FOLD [2]: 2.8 fold
Ave −Log EC50 [3]: 8.05

CN1C[C@H](C(=O)N[C@]2(C)O[C@@]3(O)[C@@H]4CCCN4C(=O)[C@H](Cc4ccccc4)N3C2=O)C[C@@H]2c3cccc4[nH]cc(c34)C[C@H]21 [Dihydroergotamine, dihydroergotamine]
EC50 ([7]; Ave −Log EC50): 0.0513 nM and 0.269 nM
EC50 [13]: 0.0933 nM
EC50 [8]: 0.0513 nM
FOLD [8]: −5.2 fold
EC50 [9]: 24.5 nM
FOLD [9]: 479 fold
EC50 [14]: 1.17 nM
FOLD [14]: 2.5 fold

CC(CCc1ccc(O)cc1)NCCc1ccc(O)c(O)c1 (stereo not drawn) [Dobutamine]
EC50 [10, 26]: 550 nM
EC50 [11]: 2140 nM
FOLD [11]: 3.9 fold

OCCN1CCN(CCCN2c3ccccc3Sc3ccc(C(F)(F)F)cc32)CC1 [Fluphenazine]
EC50 [2, 25]: 38.9 nM
FOLD [2]: 5.8 fold
EC50 [3]: 6.76 nM

CN1C[C@@H](NS(=O)(=O)N(C)C)C[C@@H]2c3cccc4c3c(cn4C)C[C@H]21 [Mesulergine]
EC50 ([7]; Leucine 40 (wild type), Table 6, read-out: Ave −Log EC50 (converted)): 3.55 nM
EC50 ([7]; Valine 208 (wild type), Table 7, read-out: Ave −Log EC50 (converted)): 6.92 nM
EC50 ([8]; Leucine 208 (V208L), Table 7, read-out: Ave −Log EC50 (converted)): 2.14 nM

CNCCC=C1c2ccccc2CCc2ccccc21 [Nortryptiline]
EC50 ([13]; Arginine 388 (wild type), Table 19, read-out: Ave −Log EC50 (converted)): 39.8 nM

COc1ccc(C2CNC(=O)C2)cc1OC1CCCC1 (stereo not drawn) [ROLIPRAM]
EC50 [15]: 692 nM
FOLD [15]: 1.6 fold
EC50 [1, 23]: 437 nM
Ave −Log EC50 [1, 24]: 6.36

CN1CCc2c(cc(O)c(O)c2Cl)C(c2ccccc2)C1 (stereo not drawn) [SKF82957, R(+)-6-Chloro-7,8-dihydroxy-3-methyl-1-phenyl-2,3,4,5-tetrahydro-1H-3-benzazapine hydrobromide]
EC50 ([16]; Proline 79 (wild type), Table 4): 34.7 nM
EC50 ([16]; Serine 199 (wild type), Table 5): 91.2 nM
EC50 ([16]; Threonine 37 (wild type), Table 3): 91.2 nM
EC50 ([17]; Alanine 199 (S199A), read-out: Ave −Log EC50 (converted)): 955 nM
FOLD ([17]; shift in functional potency, Alanine 199 vs Serine 199): 11 fold
EC50 ([18]; Proline 37 (T37P), read-out: Ave −Log EC50 (converted)): 955 nM
FOLD ([18]; shift in functional potency, Proline 37 vs Threonine 37): 11 fold
EC50 ([19]; Serine 79 (P79S), read-out: Ave −Log EC50 (converted)): 4570 nM
FOLD ([19]; shift in functional potency, Serine 79 vs Proline 79): 132 fold

CN1CCN(CC/C=C2/c3ccccc3Sc3ccc(S(=O)(=O)N(C)C)cc32)CC1 [Thiothixene]
EC50 [2, 25]: 21.9 nM
FOLD [2]: 3.2 fold
EC50 [3]: 6.92 nM

ANTHAMINE
Ave −Log EC50 ([15]; Arginine 231 (K231R), agonists and inverse agonists, Table 11): 7.29
Ave −Log EC50 [1, 23]: 7.81
Ave −Log EC50 [1, 24]: 7.82

CCK-4
FOLD [20]: −12.0 fold

CCK-8-Sulfated
FOLD [20]: −3.0 fold

Leu/Pro NPY (from UniProt P01303 29-97) (peptide)
Ave -Log EC50, R-SAT functional potency [21]: 7.5 -log EC50

PEPTIDE YY (HUMAN) (from UniProt P10082 29-64)
Ave -Log EC50, R-SAT functional potency [21]: 9.94 -log EC50
Ave -Log EC50, R-SAT functional potency [22]: 6.91 -log EC50
FOLD (shift in functional potency against wild type) [22]: 1070 fold
